Patent publication US20130150566A1, “TUMOR-TARGETED TNF-RELATED APOPTOSIS-INDUCING LIGAND'S VARIANT AND THE APPLICATION THEREOF” (TARGETPHARMA LABORATORIES (CHANGZHOU) CO., LTD, priority 2011, published 2013)

Legend:
[1] = system: mutated Jurkat cells from FADD−/− and Caspase-−/−; test: Apoptosis induction in mutated Jurkat cells; assay type: cell-based
Hela cells = test: Cell apoptosis by double staining of Annexin V and propidium iodide, Hela; assay type: cell-based, human
Experimental: (§1) The supernatant is removed and the cells are suspended again by 100 μl binding buffer. Annexin V-FITC (BD Pharmgen Company) is added to which final concentration is 2 μg/ml, and the cells are incubated at the room temperature. 10 minutes later, 400 μl binding buffer is supplemented. The cells are transferred into Flow Analyzer Tube, and 1 μg propidium iodide (Sigma Company) is added into each of the tube. The cells are analyzed by Flow Cytometer within 30 minutes. The experiment is repeated three times for each cell line.
(§2) The activity to induce the tumor cell apoptosis of the tumor-targeted TNF-related apoptosis-inducing ligand's variant NGR-TRAIL is appraised using COLO-205, HCT-15 and HT-29 cells separately (FIG. 4). After induced by series concentration gradient TRAIL variant or TRAIL, the tumor cells are detected by Flow Cytometer according to the double staining method of Annexin V-FITC and Pl. […] The sensibility of Hela cell to TRAIL is increased 8 times because of the addition of the short peptide. […] There is a positive correction between the difference of the apoptosis-inducing to these tumor cells between NGR-L-TRAIL and TRAIL and the expression and the abundance of the CD13 molecule on the surface of tumor cell. […] The NGR domain from NGR-L-TRAIL can direct the protein of TRAIL variant to the surface of target cell to enrichment on the cell surface. […]

COLO-205 cells = test: Cell apoptosis by double staining of Annexin V and propidium iodide, COLO-205; assay type: cell-based; settings: COLO-205 cell
Experimental: as §1, §2

HCT-15 tumor = test: Anti-tumor effect in HCT-15 colon cancer model in nude mice; assay type: in vivo; settings: HCT-15 model; 400 μg/day per mouse combining with CPT-11; 28th day
Experimental: The female nude mice bought from ShangHai Experiment Animal Center are 5-6 weeks old. The mouse tail intravenous injection of 100 μg of purified Asialo GM-1 antibody (Wako Chemicals Company, Japan) that is specific antibody blocking natural killer cells is carried out first. 24 hours later, 100 thousands of COLO-205, HT-15 and HT-29 colon cancer cells is subcutaneously vaccinated at the top right side of the back of a mouse. When the volume of tumor arrives 70 cubic millimeters, the mice are grouped randomly and treated. […] Hydrosoluble camptothecin CPT-11([…], trade name: Campto, from Pharmacia/Upjohn Company) is administrated by intravenous administration once a week, for twice in all. The recombinant protein and camptothecin are diluted by phosphate buffer. The volume of tumor is detected by vernier caliper and calculated according the formula: length is multiplied by the square of width and then is divided by 2.
The anti-tumor effect of tumor-targeted TRAIL used together with chemotherapeutic drug CPT-11 is researched in the present invention. Through COLO-205, HC-15 and HT-29 models of athymic nude mice, the anti-tumor effect of NGR-L-TRAIL used together with chemotherapeutic drug CPT-11 is researched, wherein, COLO-205, HC-15 are sensitive to TRAIL, and COLO-205 is most sensitive, and HT-29 is insensitive to TRAIL. […]

- 50% effective concentration (EC50) (inducing apoptosis) (Hela cells): ~145 ng/mL
Substance: TRAIL: recombinant wild human TNF-related apoptosis-inducing ligand
- inducing apoptosis [1]: cannot be detected
- 50% effective concentration (inducing apoptosis) (COLO-205 cells): 3.5 ng/mL
- tumor disappeared mice from the 10 administrated mice (HCT-15 tumor): 7
